Measurements: ChEMBL document CHEMBL1135773, “Purine and pyrimidine (P2) receptors as drug targets” (J Med Chem, 2002)

Tests used:
P2X purinoceptor 1 [1] = target: T1, P2X purinoceptor 1 (Rattus norvegicus, UniProt P47824); test: The compound was evaluated for antagonist activity against P2X purinoceptor 1 (P2X1) from rat vas deferens; assay type: functional
T1 sequence (P47824 whole entry): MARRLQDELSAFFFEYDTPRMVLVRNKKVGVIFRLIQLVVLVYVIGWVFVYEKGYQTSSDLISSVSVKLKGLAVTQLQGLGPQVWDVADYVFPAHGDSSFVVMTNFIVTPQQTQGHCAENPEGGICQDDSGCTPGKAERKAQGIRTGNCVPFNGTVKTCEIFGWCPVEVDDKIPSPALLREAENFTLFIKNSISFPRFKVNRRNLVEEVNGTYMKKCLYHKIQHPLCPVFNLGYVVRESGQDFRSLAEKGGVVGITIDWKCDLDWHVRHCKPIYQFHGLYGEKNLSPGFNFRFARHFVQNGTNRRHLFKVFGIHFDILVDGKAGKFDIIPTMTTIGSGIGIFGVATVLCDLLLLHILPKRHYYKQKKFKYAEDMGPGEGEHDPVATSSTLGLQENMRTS

P2X purinoceptor 1 [2] = target: T1, P2X purinoceptor 1; test: Dissociation constant of the compound at P2X purinoceptor 1 (P2X1) from rat vas deferens was reported
P2X purinoceptor 3 = P2X purinoceptor 3 (Rattus norvegicus, UniProt P49654); test: The compound was evaluated for antagonist activity against recombinant rat P2X purinoceptor 3 (P2X3) at 3 uM, expressed in Xenopus oocytes; assay type: functional, cell-based, Oocyte
P2X purinoceptor 1 [3] = target: T1, P2X purinoceptor 1; test: The compound was evaluated for antagonist activity against recombinant rat P2X purinoceptor 1 (P2X1) at 1 uM, expressed in Xenopus oocytes; assay type: functional, cell-based, Oocyte
P2X purinoceptor 4 [4] = target: T2, P2X purinoceptor 4 (Rattus norvegicus, UniProt P51577); test: The compound was evaluated for antagonist activity against recombinant rat P2X purinoceptor 4 (P2X4) at 10 uM; assay type: functional
T2 sequence (P51577 whole entry): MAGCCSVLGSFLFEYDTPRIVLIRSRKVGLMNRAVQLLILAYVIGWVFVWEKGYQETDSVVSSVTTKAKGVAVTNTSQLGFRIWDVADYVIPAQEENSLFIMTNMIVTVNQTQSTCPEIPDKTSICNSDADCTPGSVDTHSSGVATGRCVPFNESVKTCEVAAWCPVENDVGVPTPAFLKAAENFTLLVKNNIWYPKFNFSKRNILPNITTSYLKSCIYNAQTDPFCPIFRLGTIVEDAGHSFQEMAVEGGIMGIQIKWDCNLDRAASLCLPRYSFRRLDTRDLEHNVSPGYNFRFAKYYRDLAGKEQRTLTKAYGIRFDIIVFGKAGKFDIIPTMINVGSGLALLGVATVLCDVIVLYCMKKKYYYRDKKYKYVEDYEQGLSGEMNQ

P2X purinoceptor 1 [5] = target: T1, P2X purinoceptor 1; test: The compound was evaluated for antagonist activity against recombinant rat P2X purinoceptor 1 (P2X1); assay type: functional
P2X purinoceptor 7 = P2X purinoceptor 7 (Rattus norvegicus, UniProt Q64663); test: The compound was evaluated for antagonist activity against P2X purinoceptor 7 (P2X7) in rat parotid acinar cells; assay type: functional, cell-based
P2X purinoceptor 4 [6] = target: T2, P2X purinoceptor 4; test: The compound was evaluated for antagonist activity against recombinant rat P2X purinoceptor 4 (P2X4) 3 uM; assay type: functional
P2X purinoceptor 2 = target: T3, P2X purinoceptor 2 (Rattus norvegicus, UniProt P49653); test: The compound was evaluated for antagonist activity against recombinant rat P2X purinoceptor 2 (P2X2) at 30 uM; assay type: functional
T3 sequence (P49653 whole entry): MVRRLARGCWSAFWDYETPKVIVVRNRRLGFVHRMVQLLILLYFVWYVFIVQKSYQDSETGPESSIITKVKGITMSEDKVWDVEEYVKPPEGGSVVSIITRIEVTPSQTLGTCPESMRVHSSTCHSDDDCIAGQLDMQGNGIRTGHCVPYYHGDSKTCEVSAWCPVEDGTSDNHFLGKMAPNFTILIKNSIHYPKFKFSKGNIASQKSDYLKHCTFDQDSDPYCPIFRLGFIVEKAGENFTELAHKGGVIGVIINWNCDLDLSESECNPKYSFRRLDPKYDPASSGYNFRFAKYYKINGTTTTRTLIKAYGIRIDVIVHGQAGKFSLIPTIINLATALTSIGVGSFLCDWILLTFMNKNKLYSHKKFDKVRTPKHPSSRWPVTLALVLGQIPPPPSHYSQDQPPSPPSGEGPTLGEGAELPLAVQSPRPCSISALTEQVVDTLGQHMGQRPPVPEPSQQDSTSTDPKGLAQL

Chain of P2X purinoceptor 3 (P49654 whole entry): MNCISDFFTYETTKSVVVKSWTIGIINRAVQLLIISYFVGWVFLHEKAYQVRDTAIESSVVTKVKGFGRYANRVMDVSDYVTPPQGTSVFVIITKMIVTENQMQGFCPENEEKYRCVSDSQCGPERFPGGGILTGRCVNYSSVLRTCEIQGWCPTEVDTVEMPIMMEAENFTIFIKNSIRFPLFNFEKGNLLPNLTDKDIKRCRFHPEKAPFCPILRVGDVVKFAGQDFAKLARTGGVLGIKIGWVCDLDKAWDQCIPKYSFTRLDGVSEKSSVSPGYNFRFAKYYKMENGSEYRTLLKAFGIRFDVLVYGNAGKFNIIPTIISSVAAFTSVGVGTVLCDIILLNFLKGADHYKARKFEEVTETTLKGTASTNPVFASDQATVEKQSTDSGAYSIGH
Chain of P2X purinoceptor 7 (Q64663 whole entry): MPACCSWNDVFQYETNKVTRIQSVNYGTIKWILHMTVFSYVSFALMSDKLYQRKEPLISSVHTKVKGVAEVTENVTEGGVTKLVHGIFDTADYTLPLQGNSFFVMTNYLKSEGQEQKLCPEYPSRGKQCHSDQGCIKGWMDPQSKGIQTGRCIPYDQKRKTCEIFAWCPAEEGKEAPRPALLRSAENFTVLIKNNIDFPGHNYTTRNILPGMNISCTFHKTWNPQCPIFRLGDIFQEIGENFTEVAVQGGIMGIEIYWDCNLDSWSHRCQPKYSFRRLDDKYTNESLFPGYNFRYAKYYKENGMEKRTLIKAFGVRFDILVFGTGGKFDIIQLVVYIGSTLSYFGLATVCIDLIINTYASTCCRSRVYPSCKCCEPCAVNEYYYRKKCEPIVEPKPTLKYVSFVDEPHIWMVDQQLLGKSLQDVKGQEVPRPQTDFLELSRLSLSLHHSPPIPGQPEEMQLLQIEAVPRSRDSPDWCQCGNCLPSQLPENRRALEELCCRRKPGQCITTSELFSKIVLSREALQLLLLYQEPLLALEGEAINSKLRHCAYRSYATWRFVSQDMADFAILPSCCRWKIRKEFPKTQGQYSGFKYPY

Q: With Nc1c(S(=O)(=O)O)cc(Nc2ccc(Nc3nc(Cl)nc(Nc4ccccc4S(=O)(=O)O)n3)c(S(=O)(=O)O)c2)c2c1C(=O)c1ccccc1C2=O [CIBACRON BLUE 3GA] as the compound, how does the IC50 (P2X purinoceptor 1 [1]) read?
A: Its IC50 is 9.6 µM.

Q: And the Kd (P2X purinoceptor 1 [2])?
A: Its Kd is 1.6 µM.

Q: For Cc1nc(/N=N/c2cc(CP(=O)(O)O)cc(CP(=O)(O)O)c2)c(COP(=O)(O)O)c(C=O)c1O, which EC50 (P2X purinoceptor 3) is on record?
A: The EC50 was 0.022 µM.

Q: What about the EC50 (P2X purinoceptor 1 [3]) of the same compound?
A: The EC50 was 0.005 µM.

Q: With Cc1ncc(COP(=O)(O)O)c(C=O)c1O [PYRIDOXAL PHOSPHATE ANHYDROUS] as the compound, how does the EC50 (P2X purinoceptor 4 [4]) read?
A: The EC50 was 219 µM.

Q: And the EC50 (P2X purinoceptor 1 [5])?
A: The EC50 was 3 µM.

Q: With O=S(=O)(O)c1cc(N=C=S)ccc1/C=C/c1ccc(N=C=S)cc1S(=O)(=O)O as the compound, how does the IC50 (P2X purinoceptor 7) read?
A: Its IC50 is 35 µM.

Q: Which IC50 (P2X purinoceptor 4 [6]) does the source give for Cc1ncc2c(c1O)COP(=O)(O)OC2 here?
A: The IC50 was > 100 µM.

Q: And the EC50 (P2X purinoceptor 1 [5])?
A: The EC50 was 10.2 µM.

Q: And the EC50 (P2X purinoceptor 2)?
A: Its EC50 is 100 µM.
